From ChEMBL document CHEMBL5291721, “A preclinical secondary pharmacology resource illuminates target-adverse drug reaction associations of marketed drugs” (Nat Commun, 2023)

Experiments:
[1] = target: Voltage-gated inwardly rectifying potassium channel KCNH2 (Homo sapiens, UniProt Q12809); type: functional
Progesterone receptor = target: T1, Progesterone receptor (Homo sapiens, UniProt P06401); type: functional
T1 sequence (P06401 whole entry): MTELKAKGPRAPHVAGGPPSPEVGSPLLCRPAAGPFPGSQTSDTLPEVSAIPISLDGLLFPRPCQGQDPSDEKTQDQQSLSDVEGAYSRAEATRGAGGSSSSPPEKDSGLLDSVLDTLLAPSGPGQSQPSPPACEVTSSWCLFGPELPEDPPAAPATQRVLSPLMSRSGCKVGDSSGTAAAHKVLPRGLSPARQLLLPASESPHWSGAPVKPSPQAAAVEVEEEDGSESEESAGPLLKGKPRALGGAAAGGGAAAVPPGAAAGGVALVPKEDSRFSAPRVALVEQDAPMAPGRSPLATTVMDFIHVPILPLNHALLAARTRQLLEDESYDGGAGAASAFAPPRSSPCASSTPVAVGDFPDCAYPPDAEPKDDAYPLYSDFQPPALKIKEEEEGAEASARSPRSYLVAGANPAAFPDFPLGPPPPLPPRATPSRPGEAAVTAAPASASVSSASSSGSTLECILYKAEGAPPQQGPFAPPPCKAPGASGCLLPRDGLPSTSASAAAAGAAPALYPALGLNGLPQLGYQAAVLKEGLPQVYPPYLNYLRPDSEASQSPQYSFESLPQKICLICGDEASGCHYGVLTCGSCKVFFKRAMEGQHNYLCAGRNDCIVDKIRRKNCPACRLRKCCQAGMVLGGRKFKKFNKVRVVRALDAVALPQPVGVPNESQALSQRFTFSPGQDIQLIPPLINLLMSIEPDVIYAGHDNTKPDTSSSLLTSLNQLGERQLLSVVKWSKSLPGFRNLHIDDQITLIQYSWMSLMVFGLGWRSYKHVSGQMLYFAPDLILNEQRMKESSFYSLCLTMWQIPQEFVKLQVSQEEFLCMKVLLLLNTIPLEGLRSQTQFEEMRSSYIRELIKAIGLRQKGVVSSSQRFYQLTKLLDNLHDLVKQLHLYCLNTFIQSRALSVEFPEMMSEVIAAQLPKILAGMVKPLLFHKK

[2] = target: Delta-type opioid receptor (Homo sapiens, UniProt P41143)
Sequence of Delta-type opioid receptor (P41143 whole entry): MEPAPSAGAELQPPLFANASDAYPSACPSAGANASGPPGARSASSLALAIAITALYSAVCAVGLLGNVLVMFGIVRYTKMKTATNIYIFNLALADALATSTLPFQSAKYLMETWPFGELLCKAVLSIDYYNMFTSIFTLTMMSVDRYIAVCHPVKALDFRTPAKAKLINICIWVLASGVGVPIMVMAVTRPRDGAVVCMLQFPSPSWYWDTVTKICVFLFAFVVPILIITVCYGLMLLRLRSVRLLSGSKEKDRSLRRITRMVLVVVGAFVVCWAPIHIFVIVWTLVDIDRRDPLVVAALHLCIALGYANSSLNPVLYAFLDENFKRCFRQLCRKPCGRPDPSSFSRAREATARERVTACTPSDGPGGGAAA

Melanocortin receptor 3 = Melanocortin receptor 3 (Homo sapiens, UniProt P41968)
Sequence of Melanocortin receptor 3 (P41968 whole entry): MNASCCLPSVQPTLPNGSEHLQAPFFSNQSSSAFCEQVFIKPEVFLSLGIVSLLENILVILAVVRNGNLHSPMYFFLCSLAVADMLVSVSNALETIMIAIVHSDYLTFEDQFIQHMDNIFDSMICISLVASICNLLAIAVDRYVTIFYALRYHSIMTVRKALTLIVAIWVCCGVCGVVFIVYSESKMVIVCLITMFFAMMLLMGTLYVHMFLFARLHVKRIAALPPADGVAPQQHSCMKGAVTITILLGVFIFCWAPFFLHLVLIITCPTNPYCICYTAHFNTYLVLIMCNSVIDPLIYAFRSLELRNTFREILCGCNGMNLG

[3] = target: T2, Alpha-2A adrenergic receptor (Homo sapiens, UniProt P08913); type: functional, cell-based
T2 sequence (P08913 whole entry): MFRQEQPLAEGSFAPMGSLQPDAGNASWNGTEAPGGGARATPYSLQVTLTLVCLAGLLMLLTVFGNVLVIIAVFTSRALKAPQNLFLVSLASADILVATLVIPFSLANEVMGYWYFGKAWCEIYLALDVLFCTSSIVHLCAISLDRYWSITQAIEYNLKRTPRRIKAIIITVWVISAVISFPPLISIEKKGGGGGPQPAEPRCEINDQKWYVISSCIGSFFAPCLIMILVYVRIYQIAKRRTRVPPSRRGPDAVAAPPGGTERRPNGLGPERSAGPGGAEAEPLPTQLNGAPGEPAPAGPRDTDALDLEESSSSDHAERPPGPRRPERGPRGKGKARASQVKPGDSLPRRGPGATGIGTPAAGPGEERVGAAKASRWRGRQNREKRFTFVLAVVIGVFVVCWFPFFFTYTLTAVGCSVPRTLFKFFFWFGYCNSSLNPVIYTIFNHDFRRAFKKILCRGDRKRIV

[4] = target: T3, Amine oxidase [flavin-containing] A (Homo sapiens, UniProt P21397); type: functional
T3 sequence (P21397 whole entry): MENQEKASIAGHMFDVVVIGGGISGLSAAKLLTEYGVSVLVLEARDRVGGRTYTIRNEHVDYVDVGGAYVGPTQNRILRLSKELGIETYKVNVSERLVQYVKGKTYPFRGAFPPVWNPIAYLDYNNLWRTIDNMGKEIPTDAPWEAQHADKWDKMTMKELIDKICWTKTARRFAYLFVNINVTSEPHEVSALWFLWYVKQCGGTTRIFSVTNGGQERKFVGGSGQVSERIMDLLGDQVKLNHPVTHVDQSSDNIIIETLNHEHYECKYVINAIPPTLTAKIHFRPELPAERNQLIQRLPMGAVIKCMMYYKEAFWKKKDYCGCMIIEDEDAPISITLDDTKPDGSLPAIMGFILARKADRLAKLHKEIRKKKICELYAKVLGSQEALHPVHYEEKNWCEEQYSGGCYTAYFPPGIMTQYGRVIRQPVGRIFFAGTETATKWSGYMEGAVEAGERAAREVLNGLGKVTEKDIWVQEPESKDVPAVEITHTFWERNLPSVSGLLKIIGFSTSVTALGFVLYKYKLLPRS

[5] = target: Sodium-dependent noradrenaline transporter (Homo sapiens, UniProt P23975)
[6] = target: Glutamate receptor ionotropic, NMDA 1 (Rattus norvegicus, UniProt P35439)
Adenosine receptor A1 = target: T4, Adenosine receptor A1 (Homo sapiens, UniProt P30542)
T4 sequence (P30542 whole entry): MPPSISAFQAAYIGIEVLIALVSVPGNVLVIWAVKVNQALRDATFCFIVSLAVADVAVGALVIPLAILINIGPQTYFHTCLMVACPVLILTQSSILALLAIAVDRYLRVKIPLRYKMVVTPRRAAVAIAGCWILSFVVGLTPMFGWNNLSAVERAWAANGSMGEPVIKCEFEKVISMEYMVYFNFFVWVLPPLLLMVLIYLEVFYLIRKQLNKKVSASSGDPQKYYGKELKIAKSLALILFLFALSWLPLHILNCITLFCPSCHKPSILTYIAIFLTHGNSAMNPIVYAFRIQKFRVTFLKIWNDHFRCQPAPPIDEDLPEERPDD

[7] = target: Sodium-dependent dopamine transporter (Homo sapiens, UniProt Q01959)
Sequence of Sodium-dependent dopamine transporter (Q01959 whole entry): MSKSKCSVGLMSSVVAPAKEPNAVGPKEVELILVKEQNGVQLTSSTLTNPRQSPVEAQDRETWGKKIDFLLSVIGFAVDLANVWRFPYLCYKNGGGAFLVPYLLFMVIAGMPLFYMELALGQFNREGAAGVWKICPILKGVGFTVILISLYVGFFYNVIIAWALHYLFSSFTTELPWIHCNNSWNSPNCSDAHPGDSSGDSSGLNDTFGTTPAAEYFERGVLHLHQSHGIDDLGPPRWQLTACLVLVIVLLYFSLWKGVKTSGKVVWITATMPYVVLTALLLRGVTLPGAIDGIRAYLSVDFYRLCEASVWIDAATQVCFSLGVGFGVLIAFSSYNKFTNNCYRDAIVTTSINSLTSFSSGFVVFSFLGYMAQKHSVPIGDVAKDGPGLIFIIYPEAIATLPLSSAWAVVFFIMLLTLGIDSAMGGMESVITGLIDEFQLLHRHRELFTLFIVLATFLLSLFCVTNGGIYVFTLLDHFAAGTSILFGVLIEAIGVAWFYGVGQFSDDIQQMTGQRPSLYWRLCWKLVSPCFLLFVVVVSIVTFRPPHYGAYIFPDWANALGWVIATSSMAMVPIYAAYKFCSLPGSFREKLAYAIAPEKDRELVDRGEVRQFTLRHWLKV

[8] = target: Voltage-dependent L-type calcium channel subunit alpha-1C (Rattus norvegicus, UniProt P22002); type: functional
Sequence of Voltage-dependent L-type calcium channel subunit alpha-1C (P22002 whole entry): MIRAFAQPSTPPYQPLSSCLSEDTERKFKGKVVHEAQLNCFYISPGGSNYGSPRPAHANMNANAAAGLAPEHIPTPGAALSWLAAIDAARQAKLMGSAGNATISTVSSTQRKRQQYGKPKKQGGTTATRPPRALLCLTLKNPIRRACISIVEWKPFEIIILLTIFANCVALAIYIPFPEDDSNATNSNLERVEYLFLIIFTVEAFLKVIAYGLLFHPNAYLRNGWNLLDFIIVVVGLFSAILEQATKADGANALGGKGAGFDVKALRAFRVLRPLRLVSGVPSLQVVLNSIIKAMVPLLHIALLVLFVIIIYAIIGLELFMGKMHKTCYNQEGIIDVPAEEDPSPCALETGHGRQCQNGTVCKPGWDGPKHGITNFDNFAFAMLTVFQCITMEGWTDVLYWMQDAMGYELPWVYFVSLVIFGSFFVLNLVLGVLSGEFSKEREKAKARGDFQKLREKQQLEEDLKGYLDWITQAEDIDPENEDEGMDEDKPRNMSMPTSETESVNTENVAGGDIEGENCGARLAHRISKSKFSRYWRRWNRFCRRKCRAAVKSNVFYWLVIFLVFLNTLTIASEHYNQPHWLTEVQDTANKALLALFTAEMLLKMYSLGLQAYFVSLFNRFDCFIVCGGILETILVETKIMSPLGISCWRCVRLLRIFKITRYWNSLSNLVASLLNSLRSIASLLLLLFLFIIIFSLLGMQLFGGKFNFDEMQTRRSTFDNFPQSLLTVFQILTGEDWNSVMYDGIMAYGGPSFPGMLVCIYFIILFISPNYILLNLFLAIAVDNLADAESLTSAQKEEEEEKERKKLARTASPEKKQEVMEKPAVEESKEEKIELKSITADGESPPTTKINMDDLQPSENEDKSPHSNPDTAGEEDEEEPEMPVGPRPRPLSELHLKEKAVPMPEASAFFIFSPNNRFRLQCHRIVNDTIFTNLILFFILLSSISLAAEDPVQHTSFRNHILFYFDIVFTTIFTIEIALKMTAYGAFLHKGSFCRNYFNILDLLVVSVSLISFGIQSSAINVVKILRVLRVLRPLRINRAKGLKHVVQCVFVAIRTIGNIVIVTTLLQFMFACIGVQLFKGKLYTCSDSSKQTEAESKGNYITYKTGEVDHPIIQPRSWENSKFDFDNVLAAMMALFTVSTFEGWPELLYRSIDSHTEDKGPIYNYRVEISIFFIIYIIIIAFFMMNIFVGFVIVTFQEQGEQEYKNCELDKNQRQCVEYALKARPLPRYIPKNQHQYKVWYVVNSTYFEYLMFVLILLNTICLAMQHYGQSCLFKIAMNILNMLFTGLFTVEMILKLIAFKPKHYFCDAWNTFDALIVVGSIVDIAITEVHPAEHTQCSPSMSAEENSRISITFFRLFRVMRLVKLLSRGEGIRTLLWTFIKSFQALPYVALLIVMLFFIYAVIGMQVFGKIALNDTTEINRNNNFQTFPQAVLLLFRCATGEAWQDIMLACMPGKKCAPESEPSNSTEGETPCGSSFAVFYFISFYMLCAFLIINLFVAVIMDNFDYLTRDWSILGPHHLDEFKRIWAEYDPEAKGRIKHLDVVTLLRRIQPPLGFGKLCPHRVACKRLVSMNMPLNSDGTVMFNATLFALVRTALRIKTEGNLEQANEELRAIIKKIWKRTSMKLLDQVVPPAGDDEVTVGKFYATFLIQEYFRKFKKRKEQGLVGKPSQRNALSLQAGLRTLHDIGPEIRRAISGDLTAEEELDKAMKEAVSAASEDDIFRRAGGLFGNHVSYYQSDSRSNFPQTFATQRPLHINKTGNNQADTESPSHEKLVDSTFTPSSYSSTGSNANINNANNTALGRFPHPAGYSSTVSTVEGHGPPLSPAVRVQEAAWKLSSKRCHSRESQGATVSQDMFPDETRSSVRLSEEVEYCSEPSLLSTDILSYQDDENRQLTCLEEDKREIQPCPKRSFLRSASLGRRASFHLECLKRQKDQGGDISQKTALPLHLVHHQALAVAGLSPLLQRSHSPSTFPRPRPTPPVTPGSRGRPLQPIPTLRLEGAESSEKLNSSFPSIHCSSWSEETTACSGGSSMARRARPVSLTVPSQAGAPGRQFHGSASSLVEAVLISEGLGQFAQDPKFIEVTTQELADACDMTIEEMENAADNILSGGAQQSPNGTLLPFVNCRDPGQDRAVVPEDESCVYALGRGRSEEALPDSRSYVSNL

[9] = target: T2, Alpha-2A adrenergic receptor; type: functional, cell-based; remark: listed apart in the source
Further: assay procedure not described here.

Sequence of Voltage-gated inwardly rectifying potassium channel KCNH2 (Q12809 whole entry): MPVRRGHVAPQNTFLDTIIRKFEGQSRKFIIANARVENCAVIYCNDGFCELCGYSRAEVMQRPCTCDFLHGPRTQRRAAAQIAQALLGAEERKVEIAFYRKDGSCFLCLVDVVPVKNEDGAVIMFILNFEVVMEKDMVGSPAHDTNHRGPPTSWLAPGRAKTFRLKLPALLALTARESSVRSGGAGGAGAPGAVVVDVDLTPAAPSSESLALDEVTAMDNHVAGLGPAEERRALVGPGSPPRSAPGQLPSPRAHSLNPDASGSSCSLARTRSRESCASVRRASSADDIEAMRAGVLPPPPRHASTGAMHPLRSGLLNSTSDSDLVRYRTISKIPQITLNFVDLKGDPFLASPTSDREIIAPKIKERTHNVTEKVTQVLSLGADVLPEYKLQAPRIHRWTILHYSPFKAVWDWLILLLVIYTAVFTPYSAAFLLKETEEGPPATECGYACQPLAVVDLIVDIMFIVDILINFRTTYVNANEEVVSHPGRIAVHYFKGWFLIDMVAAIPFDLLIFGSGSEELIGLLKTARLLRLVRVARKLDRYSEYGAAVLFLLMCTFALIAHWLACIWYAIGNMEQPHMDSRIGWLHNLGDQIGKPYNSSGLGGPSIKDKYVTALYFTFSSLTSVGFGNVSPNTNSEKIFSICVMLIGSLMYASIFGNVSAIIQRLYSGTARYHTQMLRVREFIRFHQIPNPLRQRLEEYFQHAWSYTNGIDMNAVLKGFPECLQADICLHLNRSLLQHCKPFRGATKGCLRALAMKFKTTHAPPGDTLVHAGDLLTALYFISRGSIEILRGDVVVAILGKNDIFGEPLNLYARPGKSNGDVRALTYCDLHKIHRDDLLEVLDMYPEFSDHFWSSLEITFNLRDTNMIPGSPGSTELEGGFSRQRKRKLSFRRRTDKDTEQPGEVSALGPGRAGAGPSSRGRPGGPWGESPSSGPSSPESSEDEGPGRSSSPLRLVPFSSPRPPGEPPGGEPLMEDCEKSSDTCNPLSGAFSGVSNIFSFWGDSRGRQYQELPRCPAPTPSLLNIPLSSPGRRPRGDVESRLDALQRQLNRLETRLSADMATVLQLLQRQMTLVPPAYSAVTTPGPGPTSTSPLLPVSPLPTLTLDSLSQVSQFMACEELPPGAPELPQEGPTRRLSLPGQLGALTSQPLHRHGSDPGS

Row | Molecule | AC50 ([1]; read-out: AC50) [µM] | AC50 (Progesterone receptor) [µM] | AC50 [2] [µM] | AC50 (Melanocortin receptor 3) [µM] | AC50 [3] [µM] | AC50 [4] [µM] | AC50 [5] [µM] | AC50 [6] [µM] | AC50 (Adenosine receptor A1) [µM] | AC50 [7] [µM] | AC50 [8] [µM] | AC50 [9] [µM] | AC50 ([1]; human, cellular components) [µM]
1 | O=C1C(O)=C([C@H]2CC[C@H](c3ccc(Cl)cc3)CC2)C(=O)c2ccccc21 [ATOVAQUONE] | > 30 | > 30 | > 30 | > 30 | > 30 | > 30 | > 30 | > 30 | > 30 | > 30 | > 30 | > 30 | –
2 | COc1ccc(CCNCC(O)COc2cccc(C)c2)cc1OC (stereo not given) [BEVANTOLOL] | 3.41 | > 10 | > 30 | > 10 | > 10 | > 10 | > 30 | > 10 | > 10 | 16.2 | > 10 | > 10 | –
3 | Brc1c(NC2=NCCN2)ccc2nccnc12 [BRIMONIDINE] | > 30 | > 30 | > 30 | > 30 | – | > 30 | > 30 | > 30 | > 30 | > 30 | – | – | –
4 | CC(CC1c2ccccc2CCc2ccccc21)CN(C)C (stereo not given) [BUTRIPTYLINE] | 2.1 | – | – | – | > 30 | > 30 | – | > 30 | – | – | – | > 30 | –
5 | CC(C)(C)NCC(O)COc1cccc2c1CCC(=O)N2 (stereo not given) [CARTEOLOL] | > 30 | > 10 | > 30 | > 10 | > 10 | > 10 | > 10 | > 10 | > 10 | > 10 | > 10 | > 10 | –
6 | Nc1nc(Cl)nc2c1ncn2[C@H]1C[C@H](O)[C@@H](CO)O1 [CLADRIBINE] | > 30 | > 30 | > 30 | > 30 | > 30 | > 30 | > 30 | > 30 | > 30 | > 30 | – | > 30 | –
7 | Clc1ccccc1C(c1ccccc1)(c1ccccc1)n1ccnc1 [CLOTRIMAZOLE] | – | – | > 30 | – | – | > 10 | 19.9 | > 10 | – | 14.8 | 13.6 | – | –
8 | COc1ccc2c3c1O[C@H]1[C@@H](O)CC[C@H]4[C@@H](C2)N(C)CC[C@@]341 [DIHYDROCODEINE] | > 30 | – | > 30 | – | > 30 | > 30 | – | > 30 | – | – | – | > 30 | –
9 | NC(=O)OCC(COC(N)=O)c1ccccc1 [FELBAMATE] | > 30 | > 10 | > 30 | > 10 | > 10 | > 10 | > 10 | > 10 | > 10 | > 10 | > 10 | > 10 | –
10 | Cc1c(OCC(F)(F)F)ccnc1C[S+]([O-])c1nc2ccccc2[nH]1 (stereo not given) [LANSOPRAZOLE] | > 30 | – | 8.3 | > 30 | > 10 | > 10 | > 10 | > 10 | 16.8 | > 10 | > 10 | > 10 | –
11 | CO[C@]12C[C@@H](COC(=O)c3cncc(Br)c3)CN(C)[C@@H]1Cc1cn(C)c3cccc2c13 [NICERGOLINE] | 0.13 | – | – | – | – | – | – | – | – | – | – | – | –
12 | NC(=O)CN1CC(O)CC1=O (stereo not given) [OXIRACETAM] | > 30 | > 30 | > 30 | > 30 | > 30 | > 30 | > 30 | > 30 | > 30 | > 30 | – | > 30 | –
13 | Cc1cc(C(C)(C)C)c(O)c(C)c1CC1=NCCN1 [OXYMETAZOLINE] | > 30 | > 30 | > 30 | > 30 | – | > 30 | > 30 | > 30 | – | > 30 | – | – | –
14 | C[C@H]1COc2c(C3(N)CC3)c(F)cc3c(=O)c(C(=O)O)cn1c23 [PAZUFLOXACIN] | > 30 | – | > 30 | > 10 | > 10 | > 10 | > 10 | > 10 | > 10 | > 10 | > 10 | > 10 | –
15 | CC/C(=C(\c1ccccc1)c1ccc(OCCN(C)C)cc1)c1ccccc1 [TAMOXIFEN] | – | – | > 30 | – | > 10 | > 10 | 8.83 | > 10 | – | 12.3 | > 10 | > 10 | –
16 | COc1cccc(C2(O)CCCCC2CN(C)C)c1 (stereo not given) [TRAMADOL] | > 30 | – | > 30 | > 30 | > 10 | > 10 | > 10 | > 10 | > 30 | > 10 | > 10 | > 10 | –
17 | Cc1nnc2n1-c1ccc(Cl)cc1C(c1ccccc1Cl)=NC2 [TRIAZOLAM] | > 30 | – | > 30 | > 30 | > 10 | > 10 | > 30 | > 10 | > 30 | > 30 | > 10 | > 10 | –
18 | CC1(C)CCC(CN2CCN(c3ccc(C(=O)NS(=O)(=O)c4ccc(NCC5CCOCC5)c([N+](=O)[O-])c4)c(Oc4cnc5[nH]ccc5c4)c3)CC2)=C(c2ccc(Cl)cc2)C1 [VENETOCLAX] | > 30 | > 30 | > 30 | > 30 | – | > 30 | 11 | – | – | 22 | – | – | –
19 | THIMEROSAL | – | – | – | – | – | – | – | – | – | – | – | – | > 30
